Test results from patent US11759430B2, “Active substance carrier comprising biopolymer” (AMOREPACIFIC CORPORATION, priority 2019, dated 2023).

System: stratum corneum of the cultured artificial skin (human epidermal keratinocytes)
Experiment: Test Example 2: transdermal penetration of hydrophobic fluorescent dye (Nile red) into artificial skin
Assay type: in vitro ADME
Conditions: after a night, stratum corneum average thickness 10.73 μm, FIG. 7
Experimental: The following experiment was conducted in order to investigate whether the core-shell network structure according to an exemplary embodiment of the present disclosure serves as a carrier facilitating the transdermal absorption of an active substance.
First, a core-shell network solution (Example 3) was prepared in the same manner as in Example 2 except that, instead of the red ginseng saponin as the active substance, a hydrophobic fluorescent dye (Nile red, Sigma-Aldrich) was encapsulated at a concentration of […]. The contents of zein, pullulan and pectin of Example 3 based on the total weight of the composition were 0.01 wt %, 0.02 wt % and 0.002 wt %, respectively. […]
The cells were exposed to the air by removing the medium except for the part occupied by the cells. […] After freezing using an OCT (Cryomatrix, Thermo Scientific) and slicing to a thickness of 10 μm, the frozen sections were imaged with a fluorescence microscope (BX53, Olympus, Japan) and a microscopic digital camera (DP72, Olympus, Japan). […] To compare the effect of the present disclosure, the stratum corneum of the skin was treated only with a hydrophobic fluorescent dye in Comparative Example 3, and the degree of penetration of the hydrophobic fluorescent dye was analyzed in the same manner.

Structure (SMILES): CCN(CC)c1ccc2nc3c4ccccc4c(=O)cc-3oc2c1 [Comparative Example 3, Nile red]
- penetration depth of the dye into the stratum corneum, on average: about 3.62 μm
